# Results taken from PMC12005787, “Synthetic Lethality of SHP2 and XIAP Suppresses Proliferation and Metastasis in KRAS‐mutant Nonsmall Cell Lung Cancer” (Advanced Science, 2025).
# Assays:
# NCI‐H2122 cells [1] = experiment: Cell cycle assay; type: cell-based, human; details: embelin 15 µM or SHP099 10 µM for 72 h
# Description: NCI-H2122 cells treated with given disposal were washed with pre-cooled PBS, fixed
# with ice pre-cooled 70% ethanol at 4℃ for 2 h. And then PI staining solution (containing
# RNaseA) was incubated in dark at 37℃ for 30 min. Red fluorescence and light scattering
# were detected by flow cytometry at 488 nm. Cell cycle results were analyzed and visualized
# using ModFit LT and FlowJo software. […]
# (§1) (1 picture or pasted object on this page, not shown here)
# NCI‐H2122 tumor = experiment: NCI-H2122 subcutaneous transplantation tumor model; type: in vivo, BALB/c‐nu mouse; details: i.p., q2d
# Description: NCI‐H2122 cells in the logarithmic growth phase were collected by mixing serum‐free RMPI‐1640 medium and Matrigel matrix gel, and injected subcutaneously into the right axilla of thymus‐less male BALB/c‐nu nude mice. Tumor volume was calculated according to V = ab^2/2 (where a and b are the long and short diameters of the tumor, respectively), and body weight was recorded every 3 days. When the tumor volume reached 100 mm^3, the mice were randomly divided into six groups (ten mice in each group): Control group (i.p, q2d), SHP099 (20 mg kg^−1, i.p, q2d) group, GDC‐0152 (20 mg kg^−1, i.p, q2d) group, SHP099 (20 mg kg^−1, i.p, q2d) + GDC‐ 0152 (20 mg kg^−1, i.p, q2d) co‐administration group, embelin (20 mg kg^−1, i.p, q2d) medium‐dose group and embelin (30 mg kg^−1, i.p, q2d) high‐dose group. When the tumor volume reached 1000 mm^3, all experimental mice were sacrificed, and tumor tissues and major organs, such as the heart, liver, spleen, lungs, and kidneys, were collected for further study.
# [2] = system: SHP2 phosphorylation in HeLa cells; experiment: SHP2 phosphorylation in EGF-stimulated HeLa cells (immunoblotting); type: cell-based; details: for effect on the level of SHP2 phosphorylation: 20 µM for 2 h before EGF (10 ng mL^−1); for effect on EGF-induced phosphorylation of SHP2 (Y542 and Y580) and ERK: pretreatment 2 h, SHP099 20 µM, embelin different concentrations, EGF 10 ng mL^−1 2 h
# Excerpt: Figure 1 Embelin inhibits KRAS‐mutant tumor development. A) Correlation detection between mRNA expression of PTPN11 and KRAS in patients with LUAD (n = 706) using IlluminaHiSeq analysis with data derived from TCGA database. B) Correlation and number at risk of SHP2 expression with the overall survival probability of KRAS mutant lung cancer patients (n = 92) in the TCGA database. C) Protein expression and phosphorylation levels of SHP2 in RAS‐WT, NRAS, HRAS, and KRAS‐mutant cells. D) Effect of 3471 bioactive compounds at 10 µM against SHP2, with Na3VO4 serving as a control. Z’ factor values for 69 plates screened, Z’ = 0.81, S/N = 40.8. E) Binding energy between candidate drugs and SHP2 full‐length domain, catalytic region, and ΔSHP2 domain. F) HeLa cells were pretreated with DMSO, SHP099, or various compounds at 20 µM for 2 h before stimulation with EGF (10 ng mL^−1) for an additional 2 h. Cell lysates were subjected to immunoblotting with SHP2, p‐SHP2, and GAPDH antibodies. Data are from three independent experiments are presented. G) Spearman's correlation coefficient between drug‐related targets and KRAS mRNA in different types of tumors through the TCGA database. H) BCL2, TPO, RAF1, MCL1, MPL, and XIAP mRNA expression levels in LUAD tumors and adjacent tissues through the TCGA database. I) XIAP protein expression in RAS‐WT, NRAS‐mutant, HRAS‐mutant, and KRAS‐mutant cells. J) Effect of candidate drugs (10 µM) on colony formation in A549, NCI‐H2122, and NCI‐H1944 cells.
# Figure 6 Embelin disrupts the SHP2 signaling complex in KRAS‐mutant NSCLC cells. A) HeLa cells were pretreated with SHP099 (20 µM) or different concentrations of embelin for 2 h and stimulated with EGF (10 ng mL^−1) for 2 h, the protein expression of RAS/MAPK signaling pathway in HeLa cells was detected. B) After treatment of embelin and SHP099 (10 µM) in NCI‐H2122 and A549 cells for 12 h, cell lysates were collected. One part was used to measure Gab1, Grb2, and SOS1 expression, and the other part underwent IP with SHP2 antibody. Then, binding of Gab1, Grb2, and SOS1 with SHP2 was detected. C) After treatment of embelin and SHP099 (10 µM) for 24 h, the expression of Gab1, p‐Gab1, Grb2, and SOS1 proteins in A549 and NCI‐H2122 cells were detected. […] Co‐localization of these proteins with SHP2 was detected using IF. […]
# After given treatment, cells were lysed by ice bath with radio-immunoprecipitation assay (RIPA) buffer containing 1% phenylmethylsulphonyl fluoride (PMSF), and the supernatant was collected by centrifugation, and the protein concentration was subsequently determined using a BCA Protein Assay Kit. […]
# NCI‐H2122 cells [3] = experiment: Apoptosis detection (Annexin-V-FITC/PI); type: cell-based, human; details: 24 h
# Description: NCI-H2122 cells treated with the given disposal were digested with trypsin, resuspended
# in cold PBS, and centrifuged at room temperature (1000×g for 5 min) to discard the
# supernatant. Approximately 100,000 cells were collected and 195 μL of Annexin V-FITC
# conjugate was added to gently resuspend the cells and then 5 μL of Annexin V-FITC and 10
# μL of propidium iodide (PI) staining solution were added respectively. They were then
# incubated at 37 °C for 10-20 min in the dark, placed on ice, and passed through a flow
# cytometer (Becton, Dickinson, Calibur, USA) for online detection. […]
# as §1
SMILES,effect on cell cycle (NCI‐H2122 cells [1]),effect on body weight of the mice (NCI‐H2122 tumor),"effect on weights of hearts, livers, lungs, and kidneys and structure of hearts and kidneys (NCI‐H2122 tumor)","effect on tumor growth in vivo (NCI‐H2122 tumor; embelin 20 and 30 mg kg^−1, GDC‐0152 20 mg kg^−1 + SHP099 20 mg kg^−1)",effect on the level of SHP2 phosphorylation [2],effect on EGF-induced phosphorylation of SHP2 (Y542 and Y580) and ERK [2],effect on apoptosis (NCI‐H2122 cells [3])
CCCCCCCCCCCC1=C(O)C(=O)C=C(O)C1=O [Embelin],blocked the G2/M cycle,little or no effect on the body weight,no significant effect,significantly inhibited the tumor growth rate,significantly inhibited SHP2 phosphorylation,significantly inhibited these phosphorylation levels,increased the proportion of early and late apoptotic cells
"O=C1Nc2ccc(I)cc2/C1=C/c1cc(Br)c(O)c(Br)c1 [S2872, GW5074]",,,,,significantly inhibited SHP2 phosphorylation,,
CC1(N)CCN(c2cnc(-c3cccc(Cl)c3Cl)c(N)n2)CC1 [SHP099],had no effect,little or no effect on the body weight,no significant effect,,,significantly inhibited these phosphorylation levels,promoted apoptosis
